# Assay results: ChEMBL document CHEMBL3044792, “In vitro antioxidant properties and in vivo lowering blood lipid of Forsythia suspense leaves” (Med Chem Res, 2010)
# Activity calls are given as the source filed them. The calls are words filed in the database; no cut-off is given here.
# How the values were obtained:
# Type in all cases: functional
# [1] = Antioxidant activity assessed as ABTS radical scavenging activity
# [2] = system: Radical scavenging activity; test: Antioxidant activity assessed as DPPH radical scavenging activity after 30 min
# [3] = Antioxidant activity assessed as ferric ion reducing activity measured as trolox equivalents by FRAP assay
# Mus musculus [4] = test: Antioxidant activity in high cholesterol diet fed Mus musculus KM (mouse) assessed as MDA level in liver at 150 mg/kg, ig for 10 days (reference value: 13.6188 +/- 4.2522 nmol/ml); conditions: route intragastric
# Mus musculus [5] = test: Hypolipidemic activity in high cholesterol diet fed Mus musculus KM (mouse) assessed as high density lipoprotein cholesterol at 150 mg/kg, ig for 10 days (reference value: 2.6953+/- 0,58099 mmol/l); conditions: route intragastric
# Mus musculus [6] = test: Hypolipidemic activity in high cholesterol diet fed Mus musculus KM (mouse) assessed as low density lipoprotein cholesterol at 150 mg/kg, ig for 10 days (reference value: 4.2972 +/- 1.1725 mmol/l); conditions: route intragastric
# Mus musculus [7] = test: Hypolipidemic activity in high cholesterol diet fed Mus musculus KM (mouse) assessed as total cholesterol level at 150 mg/kg, ig for 10 days (reference value: 7.3219 +/- 1.00196 mmol/l); conditions: route intragastric
# Mus musculus [8] = test: Hypolipidemic activity in high cholesterol diet fed Mus musculus KM (mouse) assessed as triglyceride level at 150 mg/kg, ig for 10 days (reference value: 0.9359 +/- 0.2817 mmol/l); conditions: route intragastric
# Mus musculus [9] = test: Hypolipidemic activity in high cholesterol diet fed Mus musculus KM (mouse) assessed as low density lipoprotein cholesterol at 70 mg/kg, ig for 10 days (reference value: 3.386 +/- 0.958 mmol/l); conditions: route intragastric
# Mus musculus [10] = test: Hypolipidemic activity in high cholesterol diet fed Mus musculus KM (mouse) assessed as high density lipoprotein cholesterol at 70 mg/kg, ig for 10 days (reference value: 1.028 +/- 0.139 mmol/l); conditions: route intragastric
# Mus musculus [11] = test: Antioxidant activity in high cholesterol diet fed Mus musculus KM (mouse) assessed as MDA level in liver at 70 mg/kg, ig for 10 days (reference value: 9.95 +/- 0.15 nmol/ml); conditions: route intragastric
# Mus musculus [12] = test: Hypolipidemic activity in high cholesterol diet fed Mus musculus KM (mouse) assessed as triglyceride level at 70 mg/kg, ig for 10 days (reference value: 1.391 +/- 0.351 mmol/l); conditions: route intragastric
# Mus musculus [13] = test: Hypolipidemic activity in high cholesterol diet fed Mus musculus KM (mouse) assessed as total cholesterol level at 70 mg/kg, ig for 10 days (reference value: 4.402 +/- 0.8 mmol/l); conditions: route intragastric
SMILES,IC50 [1],IC50 [2],Activity [3],Activity (Mus musculus [4]) [nmol/mL],Activity (Mus musculus [5]) [mmol/L],Activity (Mus musculus [6]) [mmol/L],Activity (Mus musculus [7]) [mmol/L],Activity (Mus musculus [8]) [mmol/L],Activity (Mus musculus [9]) [mmol/L],Activity (Mus musculus [10]) [mmol/L],Activity (Mus musculus [11]) [nmol/mL],Activity (Mus musculus [12]) [mmol/L],Activity (Mus musculus [13]) [mmol/L]
COc1cc([C@@H]2OC[C@@H]3[C@H]2CO[C@H]3c2ccc(O)c(OC)c2)ccc1O [(+)-PINORESINOL],3.08 µg/mL,8.66 µg/mL,2580 µmol/g,–,–,–,–,–,–,–,–,–,–
Cc1cc(C(C)(C)C)c(O)c(C(C)(C)C)c1 [BUTYLATED HYDROXYTOLUENE],6.04 µg/mL,17.21 µg/mL,1750 µmol/g,–,–,–,–,–,–,–,–,–,–
COc1cc([C@H]2OC[C@H]3[C@@H]2CO[C@H]3c2ccc(OC)c(OC)c2)ccc1O [PHILLYGENIN],3.58 µg/mL,15.51 µg/mL,2440 µmol/g,7.9321,2.4571,3.1861,7.2123,0.3249,–,–,–,–,–
O=c1c(O)c(-c2ccc(O)c(O)c2)oc2cc(O)cc(O)c12 [QUERCETIN],–,1.03 µg/mL,inactive,–,–,–,–,–,–,–,–,–,–
C[C@@H]1O[C@@H](OC[C@H]2O[C@@H](Oc3c(-c4ccc(O)c(O)c4)oc4cc(O)cc(O)c4c3=O)[C@H](O)[C@@H](O)[C@@H]2O)[C@H](O)[C@H](O)[C@H]1O [RUTIN],4.65 µg/mL,1.83 µg/mL,inactive,–,–,–,–,–,2.639,1.422,5.1,0.828,3.124
C[C@H]1[C@H](C)CC[C@]2(C(=O)O)CC[C@]3(C)C(=CC[C@@H]4[C@@]5(C)CC[C@H](O)C(C)(C)[C@@H]5CC[C@]43C)[C@H]12 [URSOLIC ACID],Not Active,Not Active,13.6 µmol/g,7.326,2.4373,1.5655,5.2196,0.4322,–,–,–,–,–
